Results from patent publication US20160113904A1, “SKIN CARE PRODUCTS COMPRISING SUBSTITUTED HYDROXYPROLINE WITH UNSATURATED FATTY ACIDS DERIVATIVES” (MEDWELL LABORATORIES LTD., priority 2013, published 2016).
Entries after “also recorded” stand apart in the source; their conditions may differ.

Columns and labels:
Format in all cases: in vivo, human
[1] = system: volunteers with Atopic dermatitis; test: Atopic dermatitis trial: study director's evaluation of skin condition
Method: (§1) In Examples 1-3 an emulsion type O/W Creams of MWL-001 (2.5% and 5% w/w) was prepared using Emulgade® SE emulsifiers (glyceryl stearate), Ceteareth-20, cetearyl alcohol, cetyl palmitate, cetearyl alcohol-Lanette®, isopropyl myristate, caprilic/capric acid triglycerides (Myritol®318), strearic acid, a Trietanolamine and purified water, according to Ph Eur 6.0.
Ten volunteers aged 2-30 years participated in the trial. Four females and six males.
Volunteers were instructed to apply the product only on one side of the body, on the worst affected area, while the other side was defined as the control area and was not treated. The tested material, a body lotion product, was applied 1-3 times a day for a period of 4 weeks.
Each volunteer was examined at baseline (T0), after one week (T1) and after 2 weeks of using the product (T2). The investigator rated the condition of the skin according to the parameters of the size of the affected area, dryness, scale, redness, edema, lichenification and pruritus. Both the treated and the Control areas were documented with color photographs at T0, T1 and T2.
The following parameters were evaluated: • a. Lesion area • b. Dryness • c. Scales • d. Redness • e. Edema • f. Lichenificalion
The parameters mentioned above were evaluated on a scale of 0 to 5 by the study director. • 0=None • 1=Slight • 2=Moderate • 3=Severe • 4=Extreme • 5=Very Extreme
A statistical comparison between T0 and the other two time-points (T1 and T2) and between the treated and the Control areas were made according to the Wilcoxon signed-ranks test, while p<0.05 indicated a significant difference
All parameters were assessed in a scale of 0-5 where 0=none and 5=very extreme. The percentage of change was calculated at T1 and T2.

[2] = system: volunteers with psoriasis; test: Psoriasis trial: study director's evaluation of lesions; details: for Redness level / Scale level / Thickness of the Skin / Infected area size: treated area
Method: as §1
(§2) Fifteen volunteers aged 29-73 with psoriasis.
The volunteers were instructed to use the cream at least once a day, for 4 weeks.
(§3) Volunteers were instructed to apply the product only on one side of the body, on the worst affected area at least once a day, for 4 weeks, while the other side was defined as the control area and was not treated.
Each volunteer was examined at baseline (T0), after two weeks (T1) and after 4 weeks of using the product (T2). The study Director rated the state of the skin according to the parameters of scales severity, thickness of the plaque, redness and the size of the lesions. Erythema level was documented at each time point.
The following parameters were evaluated:
a) Size of lesion b) Thickness of lesion
The parameters mentioned above were evaluated on a scale of 0 to 5 by the study director.
(§4) A statistical comparison between T0 and the other two time-points (T1 and T2) and between the treated and the Control areas were made by paired sample t-test, while p<0.05 indicated a significant difference
The results of 15 volunteers at each time point are presented in the Tables below and in the relevant Figures. All parameters were assessed in a scale of 0-5 where 0=none and 5=very extreme

[3] = system: healthy female volunteers, crow's feet area around the eyes; test: Anti wrinkle test: silicone imprints, skin roughness
Source text: Ten healthy female volunteers were included and completed the study.
Silicon imprints were taken from the crow's feet area around the eyes at both treated and control sides at each time point.
A cosmetic anti wrinkle product MW-001 was applied on half of the face for four weeks by each volunteer while the other half served as a control, without any product application during the whole test period.
A computer program draws a realistic density three-dimensional image of the relief of the skin on a colour screen for a particular density of points selected for x and y axes and then the measurements data stored in the computer are processed and then evaluated.
This analysis consists of the following steps:
1. Generation of a roughness profile from the surface relief by alignment and filtering. 2. Calculation of standardized roughness parameters DIN 4768 ff). […].
A statistical comparison between the results at T0 and at T1 was made according to the Wilcoxon signed-ranks test, a very sensitive paired-samples non-parametric test for small groups with unknown distribution, where p<0.05 indicates a significant difference. The software used was SPSS 14.

[4] = system: volunteers with Atopic dermatitis; test: Atopic dermatitis trial: side effects; details: topical product use
Source text: The participants were asked to keep a record of the daily applications in a diary and to note any side effects resulting from the product application.
In addition to keeping records of side effects, volunteers were asked to immediately report any side effects, such as dryness, burning sensation, peeling of the skin, redness, etc. to 1SR.

[5] = system: volunteers with psoriasis; test: Psoriasis trial: subjective pruritus level; details: for Pruritus level: treated area, scale 0-5
Source text: as §2, §3
The volunteers were asked to assess the pruritus level on a 0-5 scale at T0, T1 and T2.
as §4

[6] = system: volunteers with psoriasis; test: Psoriasis trial: erythema level by Mexameter; details: treated area
Method: as §2, §3
Erythema level was evaluated by Mexameter, Courage & Khazaka, CK. The probe of the Mexameter was placed on the skin at a constant pressure find measurements of skin hydration were taken. Skin erythema level was recorded at baseline, after 2 weeks and after 4 weeks of treatment.
as §4

[7] = system: healthy female volunteers; test: Anti wrinkle test: side effects; details: facial use for 4 weeks
Source text: Volunteers were asked to report side effects, such as dryness, burning sensation, peeling of the skin, redness, etc. immediately to the study director.

[8] = after 2 weeks of treatment, both sides
[9] = treated area, T0 baseline, scale 0-5
[10] = treated area, T1 after one week, scale 0-5
[11] = treated area, T2 after two weeks, scale 0-5
[12] = treated area, after 1 week of treatment
[13] = any of the sides, whole study period, p>0.05
[14] = treatment area, after 4 weeks, p<0.05

CCC=CCC=CCC=CCC=CCC=CCC=CCCC(=O)N1CC(O)CC1C(=O)O (stereo in doubt) [MW-001]
Scale level, statistical analysis of change ([1]; after 1 and 2 weeks of treatment, only at the treated area): decreased significantly
Dryness level, statistical analysis of change [1, 8]: decreased significantly
Redness level, statistical analysis of change [1, 8]: decreased significantly
Lichenification level, statistical analysis of change ([1]; after 2 weeks of treatment, only at the treated area): decreased significantly
Overall efficacy conclusion ([1]; atopic dermatitis): very efficient in the treatment of atopic dermatitis
Dryness level [1, 9]: 4.1
Lichenification level [1, 9]: 2.8
Redness level [1, 9]: 3.9
Scale level [1, 9]: 2.6
Infected area size ([1]; treated area, T0 baseline, scale 0-5, 10 volunteers): 4.3
Dryness level [1, 10]: 1.8
Infected area size [1, 10]: 3.2
Lichenification level [1, 10]: 2.0
Redness level [1, 10]: 2.4
Scale level [1, 10]: 1.3
Dryness level [1, 11]: 1.1
Infected area size [1, 11]: 2.2
Lichenification level [1, 11]: 1.3
Redness level [1, 11]: 2.3
Scale level [1, 11]: 0.9
Dryness level, statistical analysis of change [1, 12]: decreased significantly
Redness level, statistical analysis of change [1, 12]: decreased significantly
Infected area size, statistical analysis of change ([1]; treated area, after 2 weeks of treatment, p<0.05, Wilcoxon): diminished significantly
Overall efficacy conclusion [2]: efficient in the treatment of psoriasis
Lesion area size, statistical analysis of decrease ([2]; after 4 weeks of application): insignificant
Scale parameter, treatment side versus control side ([2]; after both 2 weeks (T1) and 4 weeks (T2)): Significant differences
Redness parameter, statistical analysis of change [2, 13]: No significant change
Redness level ([2]; T0 baseline, scale 0-5): 3.3
Scale level ([2]; T0 baseline, scale 0-5): 4.5
Thickness of the Skin ([2]; T0 baseline, scale 0-5): 3.0
Infected area size ([2]; T0 baseline, scale 0-5, 15 volunteers): 4.1
Infected area size ([2]; T1 after two weeks, scale 0-5): 3.8
Redness level ([2]; T1 after two weeks, scale 0-5): 3.5
Scale level ([2]; T1 after two weeks, scale 0-5): 4.1
Thickness of the Skin ([2]; T1 after two weeks, scale 0-5): 2.6
Infected area size ([2]; T2 after four weeks, scale 0-5): 3.9
Redness level ([2]; T2 after four weeks, scale 0-5): 3.2
Scale level ([2]; T2 after four weeks, scale 0-5): 3.8
Thickness of the Skin ([2]; T2 after four weeks, scale 0-5): 2.4
Lesion area size, statistical analysis of change ([2]; treatment area, after 2 weeks of application): significant decrease
Scales parameter, statistical analysis of change [2, 14]: significant improvement
Thickness parameter, statistical analysis of change [2, 14]: significant improvement
Overall efficacy conclusion ([3]; rough and wrinkled skin): efficient for the treatment of rough and wrinkled skin
Decrease of skin roughness ([3]; treated area, before versus after 2 weeks of use): 10.8%
Decrease of skin roughness ([3]; treated area, before versus after 4 weeks of use): 19.5%
Skin roughness improvement, statistical analysis ([3]; treated area, both T1 and T2, p<0.05): significant
Side effects / safety [4]: None of the participants had side effects; also recorded: safe for use
Pruritus level, statistical analysis of change [5, 13]: No significant change
Pruritus level ([5]; T0 baseline): 2.1
Pruritus level ([5]; T1 after two weeks): 1.6
Pruritus level ([5]; T2 after four weeks): 1.3
Erythema level ([6]; T0 baseline): 562.1
Erythema level ([6]; T1 after two weeks): 517.5
Erythema level ([6]; T2 after four weeks): 576.7
Side effects / safety [7]: None of the volunteers reported of any side effects; also recorded: safe for use
